# Data reported in patent publication US20200123208A1, “PEPTIDES AND NEMATICIDAL COMPOSITIONS” (priority 2017, published 2020).
# How the values were obtained:
# Assay type in all cases: in vivo
# [1] = system: Meloidogyne incognita infective stage juveniles (J2s); assay: Chemosensory (chemotaxis) assay towards root exudate, M. incognita J2s; details: for chemotaxis index (Cl) towards root exudate: M. incognita J2s
# Description: (§1) Predicted uNLPs from both M. incognita and G. pallida were synthesised by EZBiolab and dissolved into pH adjusted ddH2O to make a 5 mM stock which was aliquoted and stored at −20° C. J2s of both M. incognita and G. pallida were incubated for 24 hours in 200 μl of each peptide in a 24 well plate (SPL Lifesciences, South Korea) at a defined concentration.
# (§2) A 60 mm Petri dish was divided into two segments, a positive and a negative side, with a 0.5 cm ‘dead zone’ either side of the centre point. The petri dish was filled with 15 ml of 0.25% w/v agar which was allowed to solidify. 3 ml of 0.25% w/v agar slurry in spring water (pH 7, agitated with a magnetic stirrer for several hours to give a smooth consistency) was added to the petri dish and spread evenly over the surface. Root diffusate (attractant) and water only (control) 0.25% agar plugs were embedded in the agar slurry, either side of the assay arena. Root diffusate was collected from 10 tomato plants, aged 3-6 weeks in 1 litre pots, by pouring 500 ml of ddH2O through the soil three times. Diffusate from each plant was combined, filter sterilised and stored at 4° C. for a maximum of 1 month. Root diffusate agar plugs were made by melting 1.25% agar in ddH2O, cooling to 50° C. before mixing with 4 parts of root diffusate. The agar was then allowed to solidify at room temperature. 100 uNLP pre-treated M. incognita or G. pallida J2s were added by pipette to the centre of the plate. J2s which moved out of the ‘dead zone’ after 3 hours were counted and their location (+/−) scored. The distribution of J2s were used to create a chemotaxis index for each plate, which formed one replicate, a total of 10 replicates where completed for each uNLP treatment.
# [2] = system: Meloidogyne incognita J2s; assay: Serotonin-induced stylet thrusting assay, M. incognita J2s; details: 100 μM uNLP, 24 h, 5 mM serotonin
# Description: as §1
# Stylet thrusting assays where performed by incubating 100 M. incognita or G. pallida J2s for 15 minute in 5 mM or 2 mM serotonin (Sigma Aldrich, USA), respectively. J2s were placed on a glass slide and stylet thrusts were counted for randomly selected J2s, for 1 minute each. Counting took place for a maximum of 15 minutes. Longer incubations yielded inconsistent results. At least 30 J2s were counted for each neuropeptide treatment.
# [3] = system: Globodera pallida infective stage juveniles (J2s); assay: Chemosensory (chemotaxis) assay towards root exudate, G. pallida J2s; details: 100 μM uNLP, 24 h, mean+/-SEM
# Description: as §1, §2
# Globodera pallida J2s = assay: B. subtilis and C. reinhardtii plant protection assay, G. pallida; details: tomato
# Description: Tomato seeds were sterilised with 2.5% NaOCl for 15 minutes, washed 5 times in ddH2O and germinated on 0.5% Murashige and Skoog plates at 23° C. […] Invasion assays were performed by mixing 500 pre-treated M. incognita or G. pallida J2s with agar slurry and a single tomato seedling (2 days post germination) in a 6 well plate. Assays were left at 23° C. for 24 hours in the case of M. incognita and at 18° C. for 24 hours in the case of G. pallida under a 16 hour light and 8 hour darkness cycle. Seedlings were stained using acid fuschin [69] and the number of nematodes within the roots counted.
# B. subtilis were grown overnight in LB media containing ampicillin (100 μg/ml) at 37° C. with shaking, and harvested in the log phase of growth determined by measuring OD600nm. Five ml of culture at 0.5 OD was spun down and the pellet mixed with 3 ml of agar slurry and 500 J2s from either G. pallida or M. incognita. C. reinhardtii clones were grown at 23° C. with shaking, cultures in the log phase were measured at OD750 and 5 ml of culture at 0.5 OD was pelleted by centrifugation. C. reinhardtii pellets were mixed with 3 ml of agar slurry and 500 J2s from either G. pallida or M. incognita. Plant invasion assays were performed as described above. […]
# [4] = system: Steinernema carpocapsae infective juveniles; assay: S. carpocapsae host-finding assay (non-target nematode); details: S. carpocapsae IJs, 100 μM, 24 h; no statistically significant impact; control 0.2315
# Description: S. carpocapsae were cultured in Galleria mellonella at 23° C. Infective juveniles (IJs) were collected using a White trap in PBS. Freshly emerged IJs were used for each assay. 100 IJs were incubated for 24 hours in 100 μM of selected uNLPs, and host-finding assays performed as in Morris et al..
sequence,measurement,setting,value
SFDSFTGPGFTGLD [Mi-NLP-15b],chemotaxis index (Cl) towards root exudate,"[1]; 100 μM uNLP, 24 h, mean+/-SEM",−0.3408+/−0.2207
same,chemotaxis index (Cl) towards root exudate,"[1]; Mi-NLP-15b 100 pM, 24 h",0.03117+/−0.1594
same,chemotaxis index (Cl) towards root exudate,"[1]; Mi-NLP-15b 1 nM, 24 h",−0.07105+/−0.1534
same,chemotaxis index (Cl) towards root exudate,"[1]; Mi-NLP-15b 10 nM, 24 h",−0.1741+/−0.1724
same,chemotaxis index (Cl) towards root exudate,"[1]; Mi-NLP-15b 100 nM, 24 h",−0.1195+/−0.1968
same,chemotaxis index (Cl) towards root exudate,"[1]; Mi-NLP-15b 1 μM, 24 h",−0.1344+/−0.1733
same,chemotaxis index (Cl) towards root exudate,"[1]; Mi-NLP-15b 10 μM as printed (last of the series, after 100 pM), 24 h",−0.1553+/−0.2642
same,chemotaxis index (Cl) towards root exudate,"[1]; Mi-NLP-15b 10 μM, 24 h (dilution series)",−0.03579+/−0.1504
same,chemotaxis index (Cl) towards root exudate,"[1]; Mi-NLP-15b 100 μM, 24 h (dilution series)",−0.3782+/−0.07224
same,lowest concentration inhibiting M. incognita chemosensation,"[1]; serial dilution, 24 h exposure",10 pM
same,rate of serotonergic-induced stylet thrusting compared with controls,[2],129.9%+/−10.59
same,chemotaxis index (Cl) towards root exudate,[3],−0.04762+/−0.1983
same,G. pallida invasion relative to control groups,Globodera pallida J2s; B. subtilis secreting the uNLP,51.98%+/−13.29
same,G. pallida invasion relative to controls,Globodera pallida J2s; C. reinhardtii expressing the uNLP,30.95%+/−9.021
same,insect host-finding index (Cl) towards Galleria mellonella,[4],0.2225+/−0.043
